Measured values taken from US6180803A, “19-nor-pregnene derivatives and pharmaceuticals containing such derivatives” (priority 1996, dated 2001).

What was measured:
[1] = system: ventral prostate and seminal vesicle of immature castrated male rats; assay: Residual androgenic activity in the immature castrated male rat model; type: in vivo; settings: for Seminal Vesicle weight / Ventral Prostate weight: 10 daily administrations; for effect on the growth of male accessory sex organs (residual androgenic activity): in words, gavage (PO), Tables 3 and 4
Text: The residual androgenic potential is an important feature to be evaluated for any new progestin, because it is highly predictive of androgenic side-effects in women. One pharmacological model of androgenic activity has been standardized to screen steroids or related compounds in immature castrated male rats, using the hypertrophy of the vental prostate and of the seminal vesicle as the endpoint, following 10 daily administrations (R. I. Dorfman, in Methods in Hormone Research, volume 2, London, Academic Press, 1962: 275-313; A. G. Hilgar and D. J. Hummel, Androgenic and Myogenic Endocrine Bioassay Data, U.S. Department of Health, Education and Welfare, Washington D.C., 1964).

[2] = system: uterus of estrogen-primed immature female rabbits (endometrial transformation); settings: in words, known from the literature; cited from earlier work
[3] = system: human T47-D cell progesterone receptor; assay: Relative binding affinity to human T47-D cell progesterone receptor ([3H]-ORG 2058 displacement); settings: for IC50: mean ± s.e.m., 2 nM [3H]-ORG 2058, 3 hours at 4° C., T47-D cell PR, read-out: ED50 (concentration inhibiting 50% of the specific binding of [3H]-ORG 2058); for RBA (relative binding affinity): relative to nomegestrol acetate = 100%
Description: (§1) The progestational activity of the compounds according to the present invention can be assessed mainly in two specific experimental models the affinity for the progesterone receptor (PR) in vitro, and the endometrial tranformation of the rabbit uterus in vivo. Human PRs are readily available in high amounts from the T47-D cell line in culture (M. B. Mockus et al., Endocrinology, 1982, 110, 1564-1571). Relative binding affinities (RBA) for the human T47-D cell PR are determined as previously described (J. Botella et al., J. Steroid Biochem. Molec. Biol., 1994, 50, 41-47) using [^3 H]-ORG 2058 as a labelled specific ligand (G. Fleischmann and M. Beato, Biochim. Biophys. Acta, 1978, 540, 500-517) and nomegestrol acetate as a non-radioactive reference progestin. Competitive incubations were performed against 2 nM of [^3 H]-ORG 2058 for 3 hours at 4° C. with […] of non-labelled steroid, chosen between 4 and 256 nM following a 1/2^n dilution scheme. Displacement curves were fitted for each experiment, and the concentration inhibiting 50% of the specific binding of [^3 H]-ORG 2058 was calculated for each curve (IC50).

[4] = system: uterus of estrogen-primed immature female rabbits (endometrial transformation); assay: Clauberg-McPhail test by oral administration (gavage), endometrial transformation of the rabbit uterus; type: in vivo; settings: for ED50 (dose for mean McPhail grade equal to 2): mean ± s.e.m., total dose/rabbit/5 days; for Relative activity: relative to nomegestrol acetate = 100%
Description: as §1
One specific pharmacological test has been standardized in vivo for the detection and quantitation of pseudogestagenic activity since the mid-30's: it is based on the property of the uterus of estrogen-primed immature female rabbits to respond to very slight amounts of progestin by a typical endometrial transformation into a densely packed and interlaced epithelial network called "dentelle". The original test schedule, which includes 6 days of estrogen priming (total subcutaneous dose of 30 μg/rabbit of oestradiol benzoate) followed by 5 days of progestational treatment, was designed as early as 1930 by C. Clauberg, Zentr. Gynakol. 1930, 54, 2757-2770. The semi-quantitative scale used to grade the intensity of the microscopical appearance of the dentelle was set up by M. K. McPhail, J. Physiol (London), 1934, 83, 145-156. This overall Clauberg-McPhail procedure has been extensively used to screen steroids for putative progestational activity in vivo and is still part of the basic hormonal profile of any new progestin such as norgestimate (A Phillips et al., Contraception, 1987, 36, 181-192), or desogestrel (J. Van der Vies and J. De Visser, Arzneim. Forsch/Drug Res., 1983, 33, 231-236). The progestational potency is inversely related to the dose needed to induce a half-maximal stimulation of the dentelle, i.e. to record a mean McPhail grade equal to 2. This ED50 is deduced from the dose-responsecurve and expressed in total dose/rabbit/5 days. All compounds were tested only following oral administration by gavage, in suspension in a carboxy-methylcellulose solution.

[5] = system: ventral prostate and seminal vesicle of immature castrated male rats; settings: well-known from the literature (Tausk and de Visser); cited from earlier work
[6] = Table 4, PO, 20 mg/animal/day, mean ± s.e.m. of 7 or 8 animals, castrated controls 10.4 ± 0.6, both ns
[7] = Table 4, PO, 20 mg/animal/day, mean ± s.e.m. of 7 or 8 animals, castrated controls 11.8 ± 0.6, cyproterone acetate p <0.05, Example 4 ns
[8] = Table 3, PO, 20 mg/animal/day, mean ± s.e.m. of 8 animals, castrated controls 12.0 ± 0.9, medroxyprogesterone acetate p <0.001, Example 1 ns
[9] = Table 3, PO, 20 mg/animal/day, mean ± s.e.m. of 8 animals, castrated controls 12.3 ± 0.7, medroxyprogesterone acetate p <0.01, Example 1 ns

| Compound | effect on the growth of male accessory sex organs (residual androgenic activity) [1] | IC50 [3] [nM] | RBA (relative binding affinity) [3] [%] | ED50 (dose for mean McPhail grade equal to 2) [4] [μg/rabbit 5 days] | Relative activity [4] [%] | other results |
| --- | --- | --- | --- | --- | --- | --- |
| CC(=O)O[C@]1(C(C)=O)CC[C@H]2[C@@H]3C=C(Cl)C4=CC(=O)[C@@H]5C[C@@H]5[C@]4(C)[C@H]3CC[C@@]21C [Cyproterone acetate] | very weak and limited to the ventral prostate, at the border of statistical significance | – | – | – | – | Seminal Vesicle weight [1, 6]: 11.3 ± 0.6 mg; Ventral Prostate weight [1, 7]: 15.3 ± 1.3 mg; progestational activity [2]: potent progestational activity |
| CC(=O)O[C@]1(C(C)=O)CC[C@H]2[C@@H]3CC(C)(C)C4=CC(=O)CC[C@@H]4[C@H]3CC[C@@]21C [Example 1, 17α-acetoxy-6,6-dimethyl-3,20-dioxo-19-nor-pregna-4-ene] | totally inactive | 27.8 ± 2 | 32 | 152 ± 28 | 112 | Ventral Prostate weight [1, 8]: 13.0 ± 0.3 mg; Seminal Vesicle weight [1, 9]: 10.4 ± 0.5 mg |
| CC(=O)O[C@]1(C(C)=O)CC[C@H]2[C@@H]3C[C@H](C)C4=CC(=O)[C@@H]5C[C@@H]5[C@@H]4[C@H]3CC[C@@]21C [Example 4, 17α-acetoxy-1α,2α-methylene-6α-methyl-3,20-dioxo-19-nor-pregna-4-ene] | totally inactive | 22.8 ± 1.7 | 39 | 66 ± 11 | 258 | Seminal Vesicle weight [1, 6]: 11.2 ± 0.5 mg; Ventral Prostate weight [1, 7]: 12.1 ± 0.4 mg |
| CC(=O)O[C@]1(C(C)=O)CC[C@H]2[C@@H]3C[C@H](C)C4=CC(=O)[C@H]5C[C@H]5[C@@H]4[C@H]3CC[C@@]21C [Example 5, 17α-acetoxy-1β,2β-methylene-6α-methyl-3,20-dioxo-19-nor-pregna-4-ene] | – | 17.7 ± 2.4 | 50 | > 750 ± 6.0 | > 17 | – |
| CC(=O)O[C@]1(C(C)=O)CC[C@H]2[C@@H]3C[C@H](C)C4=CC(=O)CC[C@]4(C)[C@H]3CC[C@@]21C [Medroxyprogesterone acetate] | caused both organs to more or less double in weight | – | – | – | – | Ventral Prostate weight [1, 8]: 29.1 ± 1.4 mg; Seminal Vesicle weight [1, 9]: 19.9 ± 1.8 mg; androgenic properties [5]: weak androgenic properties |
| CC(=O)O[C@]1(C(C)=O)CC[C@H]2[C@@H]3C=C(C)C4=CC(=O)CC[C@@H]4[C@H]3CC[C@@]21C [Nomegestrol acetate, reference compound] | – | 8.9 ± 2 | 100 | 170 ± 41 | 100 | progestational activity [2]: potent orally active |
| C[C@]12CC[C@H]3[C@@H](CCC4=CC(=O)CC[C@@]43C)[C@@H]1CC[C@@H]2O [Testosterone] | – | – | – | – | – | Ventral Prostate weight ([1]; Table 3, SC, 0.05 mg/animal/day, mean ± s.e.m. of 8 animals, castrated controls 12.0 ± 0.9, *** p <0.001): 90.4 ± 4.4 mg; Seminal Vesicle weight ([1]; Table 3, SC, 0.05 mg/animal/day, mean ± s.e.m. of 8 animals, castrated controls 12.3 ± 0.7, *** p <0.001): 90.3 ± 6.7 mg; Seminal Vesicle weight ([1]; Table 4, SC, 0.05 mg/animal/day, mean ± s.e.m. of 7 or 8 animals, castrated controls 10.4 ± 0.6, *** p <0.001): 79.0 ± 5.3 mg; Ventral Prostate weight ([1]; Table 4, SC, 0.05 mg/animal/day, mean ± s.e.m. of 7 or 8 animals, castrated controls 11.8 ± 0.6, *** p <0.001): 80.9 ± 3.4 mg |
